Measured values from patent publication US11850256B2, “Small molecule-mediated restoration of airway surface physiology in human cystic fibrosis lung epithelia” (The Board of Trustees of the University of Illinois, priority 2016, dated 2023).
“Also recorded” adds a separate entry of the source.

Legend:
[1] = system: CuFi-1 epithelial monolayers; assay: Airway surface liquid (ASL) pH assay, SNARF-dextran ratiometric dye, CuFi-1 monolayers; format: cell-based, human
Protocol: Airway surface liquid (ASL) pH assay. ASL pH was studied using an established fluorescent dye assay using the Dextran, SNARF®-1, 70,000 MW ratiometric dye (Thermo Fisher D3304). Mature, differentiated CuFi-1 (ATCC CRL-4013) epithelial monolayers were grown on Corning Costar 0.4 μm Transwell Clear Polyester Membrane cell culture inserts (Corning 3470). CuFi epithelia were treated with perfluorinated hydrocarbon (PFC) vehicle, AmB, AmB:Chol or Chol and incubated for the time course of the experiment at 37° C. On the day of imaging, 100 μL of a suspension of SNARF-dextran in PFC was added to the apical side of the monolayers. Monolayers were imaged 2 hours after dye addition. The monolayers were placed on 100 μL of Ultroser G media on a 10 mm glass bottom Fluorodish for imaging (World Precision Instruments). Five images per membrane were taken on a Zeiss LSM 880 confocal microscope at 40× water immersion. These images were analyzed using ImageJ to determine the green to red ratio of each image. Solutions of known pH were used to calibrate pH detection using this system. […]

[2] = system: non-CF primary human lung epithelia; assay: ASL pH in non-CF (control) primary human lung epithelia; format: cell-based; conditions: apical
Protocol: Airway surface liquid (ASL) pH assay. ASL pH was studied using an established fluorescent dye assay using the Dextran, SNARF®-1, 70,000 MW ratiometric dye (Thermo Fisher D3304). Mature, differentiated CuFi-1 (ATCC CRL-4013) epithelial monolayers were grown on Corning Costar 0.4 μm Transwell Clear Polyester Membrane cell culture inserts (Corning 3470). CuFi epithelia were treated with perfluorinated hydrocarbon (PFC) vehicle, AmB, AmB:Chol or Chol and incubated for the time course of the experiment at 37° C. On the day of imaging, 100 μL of a suspension of SNARF-dextran in PFC was added to the apical side of the monolayers. Monolayers were imaged 2 hours after dye addition. The monolayers were placed on 100 μL of Ultroser G media on a 10 mm glass bottom Fluorodish for imaging (World Precision Instruments). Five images per membrane were taken on a Zeiss LSM 880 confocal microscope at 40× water immersion. These images were analyzed using ImageJ to determine the green to red ratio of each image. Solutions of known pH were used to calibrate pH detection using this system.
Non-CF (control) and CF primary human lung epithelia were prepared and maintained in vitro as previously described. Pezzulo A A et al. (2012) Nature 487: 109-113. […]

[3] = system: CuFi-1 epithelial monolayers; assay: Ussing chamber short circuit current (permeabilization) across CuFi-1 monolayers; format: cell-based, human
Protocol: In some embodiments, a small molecule or a complex can permeabilize the apical membrane of differentiated human lung epithelia to bicarbonate. A series of natural and synthetic small molecules reported previously to permeabilize liposomes, cells, and/or nasal epithelia of mice to anions were tested for the capacity to increase short circuit current across CuFi-1 epithelial monolayers using an Ussing chamber. […] The capacity for AmB to transport bicarbonate was tested using an adapted ^13C NMR-based assay in cholesterol-containing POPC liposomes.
In a separate set of experiments, CuFi-1 cells in culture were treated with AmB in DMSO, pre-formed AmB:Chol complexes (1:5), or DMSO alone, and then short-circuit current was measured over time out to about 70 minutes.

[4] = system: CF primary human lung epithelia; assay: Change in short-circuit current in CF primary human lung epithelia after AmB treatment; format: cell-based; conditions: 2 μM, 48 h
Protocol: Non-CF (control) and CF primary human lung epithelia were prepared and maintained in vitro as previously described. Pezzulo A A et al. (2012) Nature 487: 109-113. For example, epithelial cells were isolated from the trachea and bronchi by enzymatic digestion, seeded onto collagen-coated semi-permeable membranes (0.6 cm^2 Millicell-PCF; Millipore, Bedford, MA), and grown at the air-liquid interface as previously described in Karp P H et al. (2002) In Wise C., Epithelial Cell Culture Protocols, Humana Press, Inc. 188: 115-137. Culture medium, a 1:1 mixture of Dulbecco's modified Eagle's medium and Ham's F12 medium (DMEM/F12), was supplemented with 2% Ultroser G (PALL France SAS; Saint Germain-en-Laye, France). Differentiated epithelia were used at least 14 days after seeding.
These cells were treated with AmB at a final concentration of 2 μM for 48 h, and then change in short-circuit current was measured.

[5] = system: CF primary human lung epithelia; assay: ASL bacterial killing in CF primary human lung epithelia (S. aureus); format: cell-based; conditions: 2 μM
Protocol: CF primary human lung epithelia were prepared and maintained in vitro as previously described. Pezzulo A A et al. (2012) Nature 487: 109-113. These cells were treated with AmB or C35deOAmB at a final concentration of 2 μM for 1 minute, then washed and maintained in culture for 48 h, and then bacterial killing was measured.
Increased ASL viscosity, a downstream effect of ASL pH acidification, contributes to the inability to clear mucus and bacteria from the lung. […] ASL pH is also closely correlated to the ability of antimicrobial proteins in the ASL to enact bacterial killing. To connect the observed AmB-mediated increase in ASL pH with a meaningful increase in ASL bacterial killing, AmB treated epithelia were tested against a human strain of S. aureus. Pezzulo A A et al. (2012) Nature 487: 109-113.

[6] = system: Human red blood cells (RBCs); assay: Hemolysis of human red blood cells; format: cell-based
Protocol: Against Toxicity but Preserves Permeabilization of CF Human Lung Epithelia Human red blood cells (RBCs) were separated from whole blood by centrifugation and then exposed to AmB or pre-formed AmB:Chol complexes (1:5) (Example 8) over a range of concentrations up to 20 μM. Hemolysis was then measured.

[7] = system: CuFi-1 (ΔF508/ΔF508) epithelial monolayers; assay: 14C bicarbonate transport in CuFi-1 monolayers; format: cell-based, human
Protocol: ^14C bicarbonate was administered to the basolateral side of monolayers to trace ion movement through the cells over time. Epithelial monolayers grown from the patient-derived lung epithelial cell line CuFi-1 (ΔF508/ΔF508) were also studied. The genotype ΔF508/ΔF508 represents about 46.5% of all CF patients and is considered a relatively severe deficiency. Permeabilization of the apical membrane to bicarbonate anions with AmB could correct the flux abnormality resulting from the loss of CFTR. Upon treatment with 2 μM AmB for 48 hours, a decrease in intracellular ^14C bicarbonate and an increase in ASL ^14C bicarbonate compared to CuFi-1 alone was observed (FIGS. 15A and 15B).

C[C@@H]1[C@H](O)[C@@H](C)/C=C/C=C/C=C/C=C/C=C/C=C/C=C/[C@H](O[C@@H]2O[C@H](C)[C@@H](O)[C@H](N)[C@@H]2O)C[C@@H]2O[C@](O)(C[C@@H](O)C[C@@H](O)[C@H](O)CC[C@@H](O)C[C@@H](O)CC(=O)O[C@H]1C)C[C@H](O)[C@H]2C(=O)O [AmB, amphotericin B]
effect on ASL pH, apical addition ([1]; CuFi-1): increase ASL pH; also recorded: efficacious | effect on ASL pH, basolateral addition ([1]; CuFi-1, basolateral addition): unable to increase ASL pH; also recorded: not basolateral | drop of ASL pH below the starting pH ([1]; Example 7, FIG. 8, by 25 μM and beyond): about 0.05 pH units | dose up to which ASL pH increased ([1]; Example 7, FIG. 8, suspension in PFC): 2 μM | ASL pH at high dose ([1]; Example 14, FIG. 21, by 25 μM): back down to the starting pH | dose at which ASL pH increase peaks ([1]; Example 14, FIG. 21, suspension in PFC): 5 μM | effect on ASL pH of non-CF epithelia [2]: absence of effect; also recorded: no effect | permeabilization / increase in short circuit current [3]: exceptionally effective | change in short-circuit current compared to untreated CF epithelia [4]: no significant difference | percent killing (ASL bacterial killing) ([5]; killing measured after 48 h, control about 25 percent): about 40% | effect on ASL bacterial killing ([5]; vs control): increased ASL bacterial killing | concentration giving 50 percent hemolysis [6]: about 7 μM | concentration giving 100 percent hemolysis [6]: about 10 μM | intracellular 14C bicarbonate ([7]; 2 μM, 48 hours, compared to CuFi-1 alone): decrease | ASL 14C bicarbonate, apical treatment ([7]; CuFi-1): significantly increase; also recorded: increase bicarbonate in ASL | apical transport of bicarbonate, basolateral treatment ([7]; CuFi-1, basolateral): unable to increase apical transport of bicarbonate; also recorded: not basolateral
